Test results as given in patent US9340580B2, “Peptide with multiple epitopes” (priority 2007, dated 2016).
Several values for one entry are separate records, joined by “and”; a condition that tells them apart may be missing. Equal entries are not always repeated. Where a SMILES comes first, the peptide text is derived from it.

Assays:
[1] = precipitation in the aqueous solution of the binding assay; format: physicochemical; settings: aqueous solution of the MHC class II binding assay, read-out: Precipitation in assay: lowest concentration at which an insoluble white precipitate is seen
From the text: This is a characteristic of promiscuous HLA-DRB1* binders.

[2] = solubility pre-screen in an aqueous, acidic milieu; format: physicochemical
[3] = molecular target: T1, human MHC class II allotype HLA-DRB1*1101 (human); assay: competitive MHC class II binding assay; competitor control peptide influenza haemagglutinin 307-319;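 further: each test peptide was scored on how well it displaces the known control binder from each human MHC class II allotype studied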
T1 construct: Source and construct of the MHC protein in the assay are not described

[4] = molecular target: T2, human MHC class II allotype HLA-DRB1*0701 (human); assay: as above
T2 construct: Source and construct of the MHC protein in the assay are not described

Molecule	solubility [1]	Solubility test [2]	ratio of its own IC50 to that of the control peptide [3]	ratio of its own IC50 to that of the control peptide [4]
CC[C@H](C)[C@H](NC(=O)[C@@H](NC(=O)[C@H](C)NC(=O)[C@@H](NC(=O)[C@H](C)NC(=O)[C@H](CO)NC(=O)[C@H](Cc1c[nH]cn1)NC(=O)[C@@H](NC(=O)[C@H](CCC(N)=O)NC(=O)[C@H](C)NC(=O)[C@H](CC(C)C)NC(=O)[C@H](C)NC(=O)[C@H](CCC(=O)O)NC(=O)[C@@H](N)CCCNC(=N)N)[C@@H](C)O)[C@@H](C)CC)C(C)C)C(=O)O [HDM09A] (H-REALAQTHSAIAVI-OH; N-terminus and C-terminus assumed)	1000 µM and 2900 µg/mL	YES		
CC(C)C[C@H](NC(=O)[C@H](CCC(N)=O)NC(=O)[C@H](Cc1ccccc1)NC(=O)[C@@H]1CCCN1C(=O)[C@@H](N)CCCCN)C(=O)N[C@@H](CCC(=O)O)C(=O)N[C@@H](C)C(=O)N[C@H](C(=O)N[C@@H](Cc1ccccc1)C(=O)N[C@@H](CCC(=O)O)C(=O)N[C@@H](C)C(=O)N[C@@H](CC(N)=O)C(=O)N[C@@H](CCC(N)=O)C(=O)N[C@@H](CC(N)=O)C(=O)N[C@H](C(=O)N[C@@H](CCCCN)C(=O)O)[C@@H](C)O)C(C)C [HDM21A] (H-KPFQLEAVFEANQNTK-OH; N-terminus and C-terminus assumed)	5000 µM and 9300 µg/mL	YES		
CC(C)C[C@H](NC(=O)[C@H](CCC(N)=O)NC(=O)[C@H](Cc1ccccc1)NC(=O)[C@@H]1CCCN1C(=O)[C@H](CCCCN)NC(=O)CNC(=O)[C@@H](N)CCCNC(=N)N)C(=O)N[C@@H](CCC(=O)O)C(=O)N[C@@H](C)C(=O)N[C@H](C(=O)N[C@@H](Cc1ccccc1)C(=O)N[C@@H](CCC(=O)O)C(=O)N[C@@H](C)C(=O)N[C@@H](CC(N)=O)C(=O)N[C@@H](CCC(N)=O)C(=O)N[C@@H](CC(N)=O)C(=O)N[C@H](C(=O)O)[C@@H](C)O)C(C)C [HDM21B] (H-RGKPFQLEAVFEANQNT-OH; N-terminus and C-terminus assumed)	1000 µM and 1980 µg/mL	YES		
CC(C)C[C@H](NC(=O)[C@H](CCC(N)=O)NC(=O)[C@H](Cc1ccccc1)NC(=O)[C@@H]1CCCN1C(=O)[C@@H](N)CCCCN)C(=O)N[C@@H](CCC(=O)O)C(=O)N[C@@H](C)C(=O)N[C@H](C(=O)N[C@@H](Cc1ccccc1)C(=O)N[C@@H](CCC(=O)O)C(=O)N[C@@H](C)C(=O)N[C@@H](CC(N)=O)C(=O)N[C@@H](CCC(N)=O)C(=O)N[C@@H](CC(N)=O)C(=O)N[C@H](C(=O)O)[C@@H](C)O)C(C)C [HDM21] (H-KPFQLEAVFEANQNT-OH; N-terminus and C-terminus assumed)	200 µM and 300 µg/mL	YES		
CC[C@H](C)[C@H](NC(=O)[C@H](C)NC(=O)[C@H](CS)NC(=O)[C@H](C)NC(=O)[C@H](CC(C)C)NC(=O)[C@@H](NC(=O)CNC(=O)[C@@H](N)CC(=O)O)C(C)C)C(=O)N[C@@H](C)C(=O)N[C@H](C(=O)N[C@@H](Cc1c[nH]cn1)C(=O)N[C@@H](C)C(=O)N[C@@H](CCCCN)C(=O)N[C@H](C(=O)N[C@@H](CCCNC(=N)N)C(=O)O)[C@@H](C)CC)[C@@H](C)O [HDM26A] (H-DGVLACAIATHAKIR-OH; N-terminus and C-terminus assumed)	1000 µM and 1500 µg/mL			
CC[C@H](C)[C@H](NC(=O)[C@H](CCC(=O)O)NC(=O)[C@@H](NC(=O)[C@H](CCCCN)NC(=O)[C@H](C)N)[C@@H](C)CC)C(=O)N[C@@H](CCCCN)C(=O)N[C@@H](C)C(=O)N[C@@H](CO)C(=O)N[C@@H](CC(C)C)C(=O)N[C@@H](CC(=O)O)C(=O)NCC(=O)N[C@@H](CC(C)C)C(=O)N[C@@H](CCC(=O)O)C(=O)O [HDM27] (H-AKIEIKASLDGLE-OH)	1000 µM and 1400 µg/mL	YES		
CC[C@H](C)[C@H](NC(=O)[C@H](C)NC(=O)[C@H](C)NC(=O)[C@@H](NC(=O)[C@H](C)NC(=O)[C@H](CCC(=O)O)NC(=O)[C@H](CC(=O)O)NC(=O)[C@@H](NC(=O)[C@H](C)NC(=O)[C@@H](N)CCCCN)C(C)C)C(C)C)C(=O)N[C@@H](CCC(=O)O)C(=O)N[C@@H](CCCCN)C(=O)N[C@@H](CO)C(=O)O [HDM28] (H-KAVDEAVAAIEKS-OH)	1000 µM and 1300 µg/mL	YES		
CSCC[C@H](NC(=O)[C@@H]1CCCN1C(=O)[C@H](CC(=O)O)NC(=O)[C@H](Cc1ccccc1)NC(=O)[C@@H](NC(=O)[C@H](CCC(=O)O)NC(=O)[C@H](CO)NC(=O)[C@@H](N)CCCCN)[C@@H](C)O)C(=O)N[C@@H](CCCCN)C(=O)N[C@H](C(=O)N1CCC[C@H]1C(=O)N[C@@H](CC(=O)O)C(=O)N[C@@H](Cc1c[nH]cn1)C(=O)N[C@@H](CO)C(=O)N[C@@H](CC(=O)O)C(=O)O)C(C)C [HDM29B] (H-KSETFDPMKVPDHSD-OH)	1000 µM and 1700 µg/mL	YES		
CC[C@H](C)[C@H](NC(=O)CNC(=O)[C@@H](NC(=O)[C@H](Cc1c[nH]cn1)NC(=O)[C@H](CCCNC(=N)N)NC(=O)[C@H](CCC(=O)O)NC(=O)[C@H](Cc1ccccc1)NC(=O)[C@H](CCCCN)NC(=O)[C@@H](N)CC(=O)O)[C@@H](C)CC)C(=O)N[C@H](C(=O)N[C@@H](CC(=O)O)C(=O)N[C@@H](CC(C)C)C(=O)N[C@@H](CCCCN)C(=O)O)[C@@H](C)CC [HDM30] (H-DKFERHIGIIDLK-OH; N-terminus and C-terminus assumed)	5000 µM and 7900 µg/mL	YES		
CC[C@H](C)[C@H](NC(=O)CNC(=O)[C@@H](NC(=O)[C@@H](N)Cc1c[nH]cn1)[C@@H](C)CC)C(=O)N[C@H](C(=O)N[C@@H](CC(=O)O)C(=O)N[C@@H](CC(C)C)C(=O)N[C@@H](CCCCN)C(=O)NCC(=O)N[C@@H](CCC(=O)O)C(=O)N[C@@H](CC(C)C)C(=O)N[C@@H](CC(=O)O)C(=O)N[C@@H](CCSC)C(=O)N[C@@H](CCCNC(=N)N)C(=O)N[C@@H](CC(N)=O)C(=O)O)[C@@H](C)CC [HDM31A] (H-HIGIIDLKGELDMRN-OH)	1000 µM and 1700 µg/mL	YES		
CC[C@H](C)[C@H](N)C(=O)NCC(=O)N[C@H](C(=O)N[C@H](C(=O)N[C@@H](CC(=O)O)C(=O)N[C@@H](CC(C)C)C(=O)N[C@@H](CCCCN)C(=O)NCC(=O)N[C@@H](CCC(=O)O)C(=O)N[C@@H](CC(C)C)C(=O)N[C@@H](CC(=O)O)C(=O)N[C@@H](CCSC)C(=O)N[C@@H](CCCNC(=N)N)C(=O)N[C@@H](CC(N)=O)C(=O)O)[C@@H](C)CC)[C@@H](C)CC [HDM31] (H-IGIIDLKGELDMRN-OH)	1000 µM and 1800 µg/mL			
CC[C@H](C)[C@H](N)C(=O)N[C@@H](CC(=O)O)C(=O)N[C@@H](CC(C)C)C(=O)N[C@@H](CCCCN)C(=O)NCC(=O)N[C@@H](CCC(=O)O)C(=O)N[C@@H](CC(C)C)C(=O)N[C@@H](CC(=O)O)C(=O)N[C@@H](CCSC)C(=O)N[C@@H](CCCNC(=N)N)C(=O)N[C@@H](CC(N)=O)C(=O)N[C@H](C(=O)N[C@@H](CCC(N)=O)C(=O)N[C@H](C(=O)N[C@@H](CCCNC(=N)N)C(=O)O)C(C)C)[C@@H](C)CC [HDM32A] (H-IDLKGELDMRNIQVR-OH)	5000 µM and 9000 µg/mL	YES		
CC[C@H](C)[C@H](N)C(=O)N[C@@H](CC(=O)O)C(=O)N[C@@H](CC(C)C)C(=O)N[C@@H](CCCCN)C(=O)NCC(=O)N[C@@H](CCC(=O)O)C(=O)N[C@@H](CC(C)C)C(=O)N[C@@H](CC(=O)O)C(=O)N[C@@H](CCSC)C(=O)N[C@@H](CCCNC(=N)N)C(=O)N[C@@H](CC(N)=O)C(=O)N[C@H](C(=O)N[C@@H](CCC(N)=O)C(=O)O)[C@@H](C)CC [HDM32] (H-IDLKGELDMRNIQ-OH; N-terminus and C-terminus assumed)	5000 µM and 7700 µg/mL	YES		
CC(C)[C@H](NC(=O)CNC(=O)[C@H](CC(=O)O)NC(=O)[C@H](CCC(=O)O)NC(=O)[C@H](CO)NC(=O)[C@H](CCCCN)NC(=O)[C@@H](NC(=O)[C@H](CC(N)=O)NC(=O)[C@H](C)N)C(C)C)C(=O)N[C@H](C(=O)N[C@@H](CCCCN)C(=O)N[C@@H](C)C(=O)N[C@@H](Cc1c[nH]cn1)C(=O)O)C(C)C [HDM37] (H-ANVKSEDGVVKAH-OH)		YES		
CSCC[C@H](NC(=O)[C@H](CO)NC(=O)[C@@H](NC(=O)[C@@H](NC(=O)[C@H](CC(=O)O)NC(=O)[C@@H](N)CC(=O)O)C(C)C)C(C)C)C(=O)N[C@@H](CCC(=O)O)C(=O)N[C@@H](Cc1ccc(O)cc1)C(=O)N[C@@H](CC(=O)O)C(=O)N[C@@H](CC(C)C)C(=O)N[C@@H](C)C(=O)N[C@@H](Cc1ccc(O)cc1)C(=O)N[C@@H](CCCCN)C(=O)O [HDM39] (H-DDVVSMEYDLAYK-OH; N-terminus and C-terminus assumed)		NO*		
CC[C@H](C)[C@H](NC(=O)[C@H](C)NC(=O)[C@@H](N)[C@@H](C)O)C(=O)N[C@@H](Cc1ccccc1)C(=O)N[C@@H](CCC(N)=O)C(=O)N[C@@H](CC(=O)O)C(=O)N[C@H](C(=O)N[C@H](C(=O)N[C@@H](CCCNC(=N)N)C(=O)N[C@@H](C)C(=O)N[C@@H](CCC(=O)O)C(=O)N[C@@H](CCSC)C(=O)N[C@H](C(=O)N[C@@H](CCCCN)C(=O)O)[C@@H](C)O)C(C)C)[C@@H](C)O [HDM48] (H-TAIFQDTVRAEMTK-OH; N-terminus and C-terminus assumed)	1000 µM and 1600 µg/mL	YES		
CSCC[C@H](NC(=O)[C@H](CCC(=O)O)NC(=O)[C@H](C)NC(=O)[C@H](CCCNC(=N)N)NC(=O)[C@@H](NC(=O)[C@@H](NC(=O)[C@@H](N)CC(=O)O)[C@@H](C)O)C(C)C)C(=O)N[C@H](C(=O)N[C@@H](CCCCN)C(=O)N[C@H](C(=O)N[C@@H](CC(C)C)C(=O)N[C@@H](C)C(=O)N1CCC[C@H]1C(=O)O)C(C)C)[C@@H](C)O [HDM49] (H-DTVRAEMTKVLAP-OH; N-terminus and C-terminus assumed)		YES		
RGLKQMKRVGDAN (Synthetic peptide, 84.0% purity) [HDM35]			1.26	
DKFERHIGIIDLK (Synthetic peptide, 81.4% purity) [HDM30]				6.2
